Our source for the IC50 values is patent US10385070B2, “Chroman-spirocyclic piperidine amides as modulators of ion channels” (VERTEX PHARMACEUTICALS INCORPORATED, priority 2011, dated 2019).

Where only a bound is given, the exact number is not on record here.

human NaV subtype, like NaV 1.7, sequence (Q15858 whole entry): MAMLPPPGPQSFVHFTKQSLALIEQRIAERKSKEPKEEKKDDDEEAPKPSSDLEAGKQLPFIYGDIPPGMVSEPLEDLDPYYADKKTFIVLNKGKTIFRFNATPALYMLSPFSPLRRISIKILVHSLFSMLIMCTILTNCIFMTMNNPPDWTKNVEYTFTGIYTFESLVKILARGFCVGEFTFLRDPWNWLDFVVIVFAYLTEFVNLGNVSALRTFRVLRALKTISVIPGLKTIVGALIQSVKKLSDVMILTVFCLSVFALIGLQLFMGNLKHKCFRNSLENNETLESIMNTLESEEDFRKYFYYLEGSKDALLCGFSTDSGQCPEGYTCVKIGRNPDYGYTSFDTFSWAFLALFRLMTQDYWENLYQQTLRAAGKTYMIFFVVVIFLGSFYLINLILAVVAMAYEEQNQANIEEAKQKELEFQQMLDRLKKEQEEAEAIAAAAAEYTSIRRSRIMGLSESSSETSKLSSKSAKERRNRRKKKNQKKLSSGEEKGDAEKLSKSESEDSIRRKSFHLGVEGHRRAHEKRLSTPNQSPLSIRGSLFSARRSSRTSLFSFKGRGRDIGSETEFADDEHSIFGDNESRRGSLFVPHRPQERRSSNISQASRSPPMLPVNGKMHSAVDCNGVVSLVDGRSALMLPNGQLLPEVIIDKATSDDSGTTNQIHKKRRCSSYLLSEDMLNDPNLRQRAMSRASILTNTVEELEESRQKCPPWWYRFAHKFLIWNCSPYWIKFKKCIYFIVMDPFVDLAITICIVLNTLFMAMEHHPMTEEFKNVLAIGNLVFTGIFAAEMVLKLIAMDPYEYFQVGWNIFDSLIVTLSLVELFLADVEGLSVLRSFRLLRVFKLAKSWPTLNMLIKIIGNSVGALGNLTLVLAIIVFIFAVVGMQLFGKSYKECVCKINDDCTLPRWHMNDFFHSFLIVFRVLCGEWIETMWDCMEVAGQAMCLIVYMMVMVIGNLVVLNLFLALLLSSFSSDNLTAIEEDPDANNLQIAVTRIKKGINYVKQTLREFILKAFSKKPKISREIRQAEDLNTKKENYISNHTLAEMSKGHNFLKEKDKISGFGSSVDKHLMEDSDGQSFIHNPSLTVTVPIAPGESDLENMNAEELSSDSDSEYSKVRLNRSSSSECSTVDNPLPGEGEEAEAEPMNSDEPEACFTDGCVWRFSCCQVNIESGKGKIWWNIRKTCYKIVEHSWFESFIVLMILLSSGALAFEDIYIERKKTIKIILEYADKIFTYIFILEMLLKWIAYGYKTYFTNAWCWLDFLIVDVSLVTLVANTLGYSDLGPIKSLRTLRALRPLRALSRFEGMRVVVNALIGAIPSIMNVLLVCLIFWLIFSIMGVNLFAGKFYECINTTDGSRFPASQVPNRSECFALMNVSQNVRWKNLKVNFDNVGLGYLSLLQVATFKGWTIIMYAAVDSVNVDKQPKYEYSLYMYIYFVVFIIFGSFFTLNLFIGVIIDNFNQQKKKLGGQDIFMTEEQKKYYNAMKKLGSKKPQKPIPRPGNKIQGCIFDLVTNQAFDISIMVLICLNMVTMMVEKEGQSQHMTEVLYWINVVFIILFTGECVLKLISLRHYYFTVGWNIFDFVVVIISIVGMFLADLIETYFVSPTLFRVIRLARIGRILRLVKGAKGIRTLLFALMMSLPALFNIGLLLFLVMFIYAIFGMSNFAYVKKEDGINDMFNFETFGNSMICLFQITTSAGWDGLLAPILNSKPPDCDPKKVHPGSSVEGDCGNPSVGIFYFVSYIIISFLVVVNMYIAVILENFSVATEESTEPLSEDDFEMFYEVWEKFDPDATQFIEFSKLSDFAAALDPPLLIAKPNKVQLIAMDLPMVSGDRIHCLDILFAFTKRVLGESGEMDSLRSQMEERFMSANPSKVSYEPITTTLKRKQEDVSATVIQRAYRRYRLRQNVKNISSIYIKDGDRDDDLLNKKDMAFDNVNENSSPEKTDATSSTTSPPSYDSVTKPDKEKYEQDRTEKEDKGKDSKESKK

For the experiment, the target named is human NaV subtype, like NaV 1.7 (Homo sapiens, UniProt Q15858). The experiment is described as follows: E-VIPR optical membrane potential assay with electrical stimulation. Type of experiment: cell-based. As to conditions: active against one or more sodium channels; assay and NaV subtype not specified for Table 3; read-out: IC50 Binned Activity Data. The procedure, abridged:
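HEK cells expressing human NaV (e.g. NaV1.7), loaded with CC2-DMPE/DiSBAC6(3) FRET dyes, compounds 20–35 min at room temperature, 0.625% DMSO, KCl 4.5–20 mM. Electrical stimulation ~9 s at 400 Hz scan; background-subtracted 460/580 nm emission ratios normalized; tetracaine 125 µM as positive control.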
As a reminder, the IC50 is the point on the concentration scale where inhibition reaches its midpoint. For `CC(C)Oc1ccc(C(=O)N2CCC3(CC2)C[C@@H](OC(C)C)c2cc(F)ccc2O3)cc1CO` [Compound 148], the IC50 was at most 2000 nM. In the case of `Cc1cc(C(=O)N2CCC3(CC2)C[C@H](OC(C)C)c2ccccc2O3)ccc1O` [Compound 149] it was at most 2000 nM.

Turning to `COc1cc(C(=O)N2CCC3(CC2)CC(OC(C)C)c2ccccc2O3)ccc1OC(C)C` (stereo not shown) [Compound 150], the IC50 was at most 2000 nM. As to `COc1cc(C(=O)N2CCC3(CC2)Oc2ccccc2C(OC(C)C)C3(C)C)ccc1OC(C)C` (stereo not shown) [Compound 151], the IC50 was at most 2000 nM. In the case of `COc1cc(C(=O)N2CCC3(CC2)CC(Oc2ccccc2C#N)c2ccccc2O3)ccc1OC(C)C` (stereo not shown) [Compound 152] it was at most 2000 nM; in that of `CC(C)O[C@@H]1CC2(CCN(C(=O)c3ccc(S(=O)(=O)C(C)C)cc3)CC2)Oc2c(F)cc(F)cc21` [Compound 153], 2000 to 5000 nM. Take `CC(C)O[C@H]1CC2(CCN(C(=O)c3ccc(C(C)(C)O)c(F)c3)CC2)Oc2cc(F)ccc21` [Compound 154]: the IC50 was at most 2000 nM. In the case of `COc1cc(C(=O)N2CCC3(CC2)C[C@@H](OC(C)C)c2cc(F)ccc2O3)ccc1O[C@@H]1CCOC1` [Compound 155] it was at most 2000 nM; in that of `Cc1cc(C(=O)N2CCC3(CC2)C[C@@H](OC(C)C)c2cc(F)ccc2O3)ccc1S(C)(=O)=O` [Compound 156], at most 2000 nM.

In the case of `CC(C)OC1CC2(CCN(C(=O)c3ccccc3OC(F)(F)F)CC2)Oc2ccccc21` (stereo not shown) [Compound 157], the IC50 was at most 2000 nM. `COc1cc(C(=O)N2CCC3(CC2)CC(OCC2CC2)c2ccccc2O3)ccc1OC(C)C` (stereo not shown) [Compound 158]: the IC50 is at most 2000 nM. With `Cc1cc(C(F)F)n2ncc(C(=O)N3CCC4(CC3)C[C@H](OC(C)C)c3ccccc3O4)c2n1` [Compound 159], the 50% inhibitory concentration (IC50) was at most 2000 nM. Turning to `COc1cc(C(=O)N2CCC3(CC2)C[C@@H](OC(C)C)c2ccccc2O3)ccc1C(C)(C)CO` [Compound 160], the IC50 is at most 2000 nM. Consider `CC(C)O[C@@H]1CC2(CCN(C(=O)c3ccc([S+]([O-])C(C)C)cc3)CC2)Oc2ccc(F)cc21` (stereo partly shown) [Compound 161], for which the IC50 is at most 2000 nM.

Take `COc1cc(C(=O)N2CCC3(CCc4ccccc4O3)CC2)ccc1OC(C)C` [Compound 162]: the IC50 is 2000 to 5000 nM. In the case of `COc1cc(C(=O)N2CCC3(CC2)CC(COC(C)C)c2ccccc2O3)ccc1C(C)(C)O` (stereo not shown) [Compound 163], the IC50 was at most 2000 nM. Consider `CC(C)Oc1ccc(C(=O)N2CCC3(CC2)C[C@@H](OC(C)C)c2cc(F)ccc2O3)cc1C#N` [Compound 164], for which the IC50 is at most 2000 nM.

For the molecule `COc1cc(C(=O)N2CCC3(CC2)Oc2ccccc2CC3OC)ccc1OC(C)C` (stereo not shown) [Compound 165], the IC50 is at most 2000 nM. In the case of `COc1cc(C(=O)N2CCC3(CC2)C[C@H](OC(C)C)c2ccccc2O3)ccc1C(C)(C)O` [Compound 166] it was at most 2000 nM; in that of `CC(C)Oc1ccc(C(=O)N2CCC3(CC2)C[C@H](OC(C)C)c2ccccc2O3)cc1C#N` [Compound 167], at most 2000 nM. In the case of `COCC1CC2(CCN(C(=O)c3ccc(OC(C)C)c(OC)c3)CC2)Oc2ccccc21` (stereo not shown) [Compound 168] it was at most 2000 nM.

As to `Cc1cc(OC(C)C)ccc1C(=O)N1CCC2(CC1)C[C@@H](OC(C)C)c1ccccc1O2` [Compound 169], the IC50 was at most 2000 nM.

Turning to `COc1cc(O)ccc1C(=O)N1CCC2(CC1)C[C@@H](OC(C)C)c1ccccc1O2` [Compound 170], the IC50 was at most 2000 nM. In the case of `COc1cc(C(=O)N2CCC3(CC2)C[C@H](OC(C)C)c2ccccc2O3)ccc1OC(C)C` [Compound 171] it was at most 2000 nM; in that of `COc1cc(C(=O)N2CCC3(CC2)CC(OC2CCC2)c2ccccc2O3)ccc1OC(C)C` (stereo not shown) [Compound 172], at most 2000 nM. In the case of `CC(C)Oc1ccc(C(=O)N2CCC3(CC2)C[C@@H](OC(C)C)c2cc(F)ccc2O3)cc1CN(C)C` [Compound 173], the half-inhibitory concentration (IC50) was at most 2000 nM. In the case of `CC(C)O[C@@H]1CC2(CCN(C(=O)c3ccc(NC(C)(C)C)cn3)CC2)Oc2ccc(F)cc21` [Compound 174] it was at most 2000 nM. In the case of `CC(C)O[C@@H]1CC2(CCN(C(=O)c3ccc(S(=O)(=O)C(C)C)cn3)CC2)Oc2ccc(F)cc21` [Compound 175] it was at most 2000 nM; in that of `CC(C)O[C@@H]1CC2(CCN(C(=O)c3ccc(N4CC(C)OC(C)C4)cn3)CC2)Oc2ccc(F)cc21` (stereo partly shown) [Compound 176], at most 2000 nM; in that of `COc1cc(C(=O)N2CCC3(CC2)CC(OC(C)C)c2cccc(F)c2O3)ccc1OC(C)C` (stereo not shown) [Compound 177], at most 2000 nM.

As for `CCCNc1ccc(C(=O)N2CCC3(CC2)C[C@@H](OC(C)C)c2cc(F)ccc2O3)nc1` [Compound 178], the 50% inhibitory concentration (IC50) is at most 2000 nM.
